Measured values taken from patent US10343985B2, “Cryopyrin inhibitors for preventing and treating inflammation” (VIRGINIA COMMONWEALTH UNIVERSITY, priority 2013, dated 2019).
Like-named read-outs stand apart in the source and are kept apart here.

Legend:
NLRP3 inflammasome [1] = biological target: T1, NLRP3 inflammasome (Mus musculus, UniProt Q8R4B8); assay: Caspase-1 enzymatic activity in HL-1 cardiomyocytes; format: cell-based, murine; set-up: immortalized adult murine cardiomyocytes (HL-1) cells were used; endogenous in cells; host or cells: HL-1 murine cardiomyocytes; conditions: LPS/ATP, compound 400 μM
T1 sequence (Q8R4B8 whole entry): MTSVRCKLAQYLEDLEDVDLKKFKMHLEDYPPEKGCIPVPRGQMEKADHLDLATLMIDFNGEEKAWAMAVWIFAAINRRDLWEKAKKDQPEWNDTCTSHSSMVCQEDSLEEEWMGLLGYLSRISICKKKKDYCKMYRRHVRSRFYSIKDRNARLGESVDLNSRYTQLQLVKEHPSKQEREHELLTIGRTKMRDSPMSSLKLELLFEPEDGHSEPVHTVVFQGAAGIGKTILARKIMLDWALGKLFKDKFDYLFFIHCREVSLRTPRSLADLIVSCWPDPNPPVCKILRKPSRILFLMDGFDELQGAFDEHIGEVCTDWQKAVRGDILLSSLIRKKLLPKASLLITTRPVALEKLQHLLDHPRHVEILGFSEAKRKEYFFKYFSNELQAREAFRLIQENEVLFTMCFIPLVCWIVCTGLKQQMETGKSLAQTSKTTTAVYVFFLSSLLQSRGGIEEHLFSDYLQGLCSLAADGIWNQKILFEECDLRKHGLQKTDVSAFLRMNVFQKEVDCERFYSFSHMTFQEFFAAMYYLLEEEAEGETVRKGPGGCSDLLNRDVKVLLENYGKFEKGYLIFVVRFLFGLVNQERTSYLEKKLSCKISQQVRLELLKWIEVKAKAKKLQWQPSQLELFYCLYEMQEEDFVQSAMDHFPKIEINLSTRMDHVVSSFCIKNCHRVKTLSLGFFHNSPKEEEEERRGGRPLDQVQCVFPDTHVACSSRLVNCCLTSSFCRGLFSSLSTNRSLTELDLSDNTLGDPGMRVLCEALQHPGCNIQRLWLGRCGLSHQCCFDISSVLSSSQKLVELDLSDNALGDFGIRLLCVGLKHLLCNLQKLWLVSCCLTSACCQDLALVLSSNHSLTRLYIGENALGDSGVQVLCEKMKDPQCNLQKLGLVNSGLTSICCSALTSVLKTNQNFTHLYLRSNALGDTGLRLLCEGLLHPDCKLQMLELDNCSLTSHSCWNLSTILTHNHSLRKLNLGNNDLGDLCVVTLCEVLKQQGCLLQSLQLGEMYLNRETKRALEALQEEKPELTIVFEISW
Experimental: In separate experiments, immortalized adult murine cardiomyocytes (HL-1) cells were used. […] Formation of the NLRP3 inflammasome in HL-1 cells was determined and quantified by ASC aggregation (immunohistochemistry), caspase-1 activity (enzymatic activity) and cell death (trypan blue exclusion method), as previously described. […] As readout for the NLRP3 inflammasome activation, caspase-1 enzymatic activity and cell death were evaluated. Briefly, HL-1 cells (2×10^6 cells) were plated in 90-mm dishes and NLRP3 inflammasome formation was induced as described above. After treatments, to measure caspase-1 activity, the cells were washed, harvested, and frozen. The pellet was resuspended using RIPA buffer (Sigma-Aldrich) containing a mixture of protease inhibitors (Sigma-Aldrich) and centrifuged at 16,200×g for 20 min. The supernatants were collected and the protein contents were quantified using the Bradford assay. The caspase-1 activity was determined by measuring the fluorescence produced by the cleavage of a fluorogenic substrate. The fluorescence was reported as arbitrary fluorescence units produced by 1 μg of sample per min (fluorescence/μg/min).

NLRP3 inflammasome [2] = biological target: T1, NLRP3 inflammasome; assay: Cell death in HL-1 cardiomyocytes (trypan blue exclusion); format: cell-based, murine; set-up: immortalized adult murine cardiomyocytes (HL-1) cells were used; endogenous in cells; host or cells: HL-1 murine cardiomyocytes
NLRP3 inflammasome [3] = biological target: NLRP3 inflammasome (Homo sapiens, UniProt Q96P20); conditions: literature reports, cited from earlier work
Sequence of NLRP3 inflammasome (Homo sapiens, UniProt Q96P20) (Q96P20 whole entry): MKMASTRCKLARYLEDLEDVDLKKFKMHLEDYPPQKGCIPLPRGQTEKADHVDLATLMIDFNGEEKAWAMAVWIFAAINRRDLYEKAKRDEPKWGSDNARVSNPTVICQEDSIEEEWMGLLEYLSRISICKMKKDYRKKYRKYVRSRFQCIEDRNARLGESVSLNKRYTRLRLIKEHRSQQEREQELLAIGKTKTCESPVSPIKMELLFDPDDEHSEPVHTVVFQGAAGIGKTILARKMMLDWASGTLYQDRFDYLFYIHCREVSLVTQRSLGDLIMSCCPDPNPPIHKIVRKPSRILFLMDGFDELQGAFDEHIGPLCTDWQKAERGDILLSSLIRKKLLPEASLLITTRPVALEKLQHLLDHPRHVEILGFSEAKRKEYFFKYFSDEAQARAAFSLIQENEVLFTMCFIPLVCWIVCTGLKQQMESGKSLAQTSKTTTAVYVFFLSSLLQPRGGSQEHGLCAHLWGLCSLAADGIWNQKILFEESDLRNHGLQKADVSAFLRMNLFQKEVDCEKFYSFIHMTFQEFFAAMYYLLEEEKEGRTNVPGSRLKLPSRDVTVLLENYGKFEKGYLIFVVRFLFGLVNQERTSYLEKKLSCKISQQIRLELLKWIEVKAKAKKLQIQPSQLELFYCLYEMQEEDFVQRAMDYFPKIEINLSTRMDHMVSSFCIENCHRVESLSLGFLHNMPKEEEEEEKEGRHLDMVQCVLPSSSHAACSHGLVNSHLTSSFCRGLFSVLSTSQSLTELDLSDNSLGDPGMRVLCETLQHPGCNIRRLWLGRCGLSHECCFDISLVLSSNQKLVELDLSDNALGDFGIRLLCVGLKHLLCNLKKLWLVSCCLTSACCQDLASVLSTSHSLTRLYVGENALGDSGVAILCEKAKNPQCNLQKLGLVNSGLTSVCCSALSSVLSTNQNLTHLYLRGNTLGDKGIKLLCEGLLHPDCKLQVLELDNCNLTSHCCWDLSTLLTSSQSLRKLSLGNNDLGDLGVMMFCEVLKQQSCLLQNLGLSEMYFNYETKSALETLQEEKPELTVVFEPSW

insulin = conditions: Lamkanfi et al. 2009; cited from earlier work
NLRP3 inflammasome [4] = biological target: T1, NLRP3 inflammasome; assay: Acute myocardial infarction, single i.p. dose at reperfusion, infarct size (TTC); format: in vivo; set-up: from tissue; host or cells: live mice: heart (infarction and doxorubicin models) and peritoneal cavity (zymosan A); conditions: experiment with G1; 100 mg/kg i.p. at reperfusion; 24 hours; vs vehicle
Experimental: Experimental AMI was induced in mice by transient myocardial ischemia for 30 min followed by 24 hours of reperfusion. […] The heart were explanted at 24 hours and processed for the measurement of infarct size using triphenyl tetrazolium chloride (TTC staining). The areas of infarcted tissue, the risk zone, and the whole LV areas are determined by computer morphometry using Image Pro® Plus 6.0 software (Media Cybernetics, Silver Spring, Md.).
As described above, experimental AMI was induced by transient myocardial ischemia for 30 min followed by 24 hours of reperfusion.

healthy mice = assay: Toxic effects and glucose levels in healthy control mice

SMILES: COc1ccc(Cl)cc1C(=O)NCCc1ccccc1 [Compound 6 in FIG. 3, 5-chloro-2-methoxy-N-(2-phenylethyl)-benzamide]
- caspase-1 activity (NLRP3 inflammasome [1]): failed to inhibit
- caspase-1 activity (NLRP3 inflammasome [1]; listed as intermediate compound): no inhibitory effects
- cell death (NLRP3 inflammasome [2]): failed
- cell death (NLRP3 inflammasome [2]; HL-1, LPS/ATP, compound 400 μM): no inhibitory effects

SMILES: COc1ccc(Cl)cc1C(=O)NCCc1ccc(S(=O)(=O)Cl)cc1 [Compound G1, 4-(2-[(5-chloro-2-methoxyphenyl)formamido]ethyl)benzene-1-sulfonyl chloride]
- inhibition of cryopyrin / NLRP3 inflammasome in vitro (NLRP3 inflammasome [3]): inhibited
- inhibition of cryopyrin / NLRP3 inflammasome in vitro (NLRP3 inflammasome [3]; listed as compound 1): retain some of the anti-inflammatory activity of glyburide
- effect on insulin (insulin): no effect
- infarct size (% area at risk) (NLRP3 inflammasome [4]): no effect

SMILES: COc1ccc(Cl)cc1C(=O)NCCc1ccc(S(=O)(=O)NC(=O)NC2CCCCC2)cc1 [glyburide]
- lethal within 3 days, share of mice (healthy mice; 100 mg/kg every 6 hours for 3 doses): 50%
- glucose levels 2 hours after a single dose (healthy mice; 16673-34-0 100 mg/kg, (equimolar)): significant reduction
- lethal in 3 days, share of mice (healthy mice; daily doses of 500 mg/kg): 100%
- mortality in healthy mice (healthy mice; every 6 hours for 24 hours, 16673-34-0 100 mg/kg): 50%
- plasma glucose levels (healthy mice; healthy mice, single and repeated injections, glyburide effect as early as 2 hours): significant reduction
